Values quoted from earlier work as cited in patent publication US20240065974A1, “ORAL THIN FILM” (LTS Lohmann Therapie-Systeme AG, priority 2021, published 2024).

Settings: compared with (R)-ketamine

SMILES: CNC1(c2ccccc2Cl)CCCCC1=O (racemic) [(S)-ketamine, (S)-(±)-2-(2-chlorophenyl)-2-(methylamino)cyclohexan-1-one]
- Analgesic and anaesthetic potency relative to the (R) form: approximately three times higher
